The values that follow come from patent publication US8343966B2, “Organic compounds” (Novartis AG, priority 2008, dated 2013).

Molecules are shown by their SMILES.

This experiment deals with T1, human ALK5 (ALK5 T204D kinase domain) (Homo sapiens, UniProt P36897, T204D).
T1 construct: The kinase domain of human ALK5 (amino acids 200-503); made in house; host or cells: insect cells (baculovirus)
T1 sequence (P36897 200-503 T204D): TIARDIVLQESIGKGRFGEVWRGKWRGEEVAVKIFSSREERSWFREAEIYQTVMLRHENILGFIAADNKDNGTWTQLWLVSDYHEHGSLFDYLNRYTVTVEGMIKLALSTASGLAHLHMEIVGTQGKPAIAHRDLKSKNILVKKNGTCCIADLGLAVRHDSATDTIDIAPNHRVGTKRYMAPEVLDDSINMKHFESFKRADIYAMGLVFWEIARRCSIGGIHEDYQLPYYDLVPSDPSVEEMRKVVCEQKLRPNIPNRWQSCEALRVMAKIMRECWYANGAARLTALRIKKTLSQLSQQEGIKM
Description: ALK5 kinase assay, [33P] phosphate incorporation into casein. Conditions: casein substrate, 1 μM unlabelled ATP. The experiment is classed as biochemical. The procedure: The kinase activity of ALK5 is assessed by measuring radiolabelled phosphate [33P] incorporation in to the generic substrate, casein. The kinase domain of human ALK5 (amino acids 200-503) is fused to an N-terminal histidine tag. The kinase activity of ALK5 is rendered constitutive via point mutation at amino acid 204 (threonine to aspartate modification, ALK5 T204D) and the kinase construct is engineered to be expressed from a baculovirus expression construct in insect cells. The purified, recombinantly-expressed histidine-tagged ALK5 T204D protein is dissolved at 5.4 mg/ml in 50 mM Tris-HCl pH 8.0, 150 mM NaCl, 5 mM DTT. ALK5 T204D is dissolved to 2.5 μg/ml in assay buffer (Assay buffer: 20 mM Tris-HCl pH 7.4, 10 mM MgCl2, 2 mM MnCl2) on the day of use.
Test compounds and reference compounds are dissolved in assay buffer without DTT containing 5% (v/v) DMSO. Stock solutions of test and reference compounds are diluted in assay buffer with DTT (1.25 mM) containing 4.5% (v/v) DMSO. 10 μl of test or reference compound are added to the appropriate wells of 96 well U-bottomed plate. Total enzyme activity is determined by measuring ALK5 T204D activity in the absence of ALK5 kinase inhibitor reference compounds. Non-specific binding (NSB) is determined by measuring the activity of ALK5 T204D in the presence of ALK5 kinase inhibitor reference compounds. 10 μl of dephosphorylated casein stock solution (dephosphorylated casein is dissolved in ddH2O at 20 mg/ml) is added per well (200 μg/well final assay concentration). 20 μl of ALK5 T204D (2.5 μg/ml solution) is added per well (50 ng/well final assay concentration). The plates are left to incubate at room temperature for 10 minutes.
10 μl of ATP mix is added to the well to initiate the reaction (0.66 nM [^33P]ATP/1 μM unlabelled ATP/well final assay concentration). The ATP mix is prepared as follows, unlabelled ATP (3 mM) is dissolved in ddH2O and pH adjusted to 7.4. The stock concentration of [^33P]ATP is 10 μCi/μl. The appropriate volume of [^33P]ATP is added to unlabelled ATP solution such that the final assay concentration per well is 0.1 μCi. Following addition of the ATP mix, the plates are incubated at room temperature for 50 minutes. The kinase reaction is terminated by the addition of 50 μL Stop Buffer (20 mM Tris-HCl pH 7.4, 10 mM EDTA).
75 μl/well from the reaction plate is transferred to a Multiscreen-IP plate (MultiScreen-IP plates are prepared by added 50 μL of 70% (v/v) ethanol per well and incubated for 5 minutes at room temperature. The ethanol is removed by aspiration via a MultiScreen HTS Vacuum Manifold unit (Millipore, Cat no: MSVMHT500). The plates are washed twice by adding 200 μl/well ddH2O). The MultiScreen-IP plate is incubated at room temperature for 30 minutes to allowing binding of casein to the plate. The MultiScreen-IP plates are washed three times by adding 200 μl/well 100 mM phosphoric acid solution and the gasket is carefully removed from the back of the MultiScreen-IP plate and the plate dried in the oven for 30 minutes. The MultiScreen-IP plate is backsealed, 50 μL of Microscint™20 is added, then the plates are topsealed and radiolabelled casein detected and quantified on a TopCount™ plate-reader using the ^33P scintillation protocol.
In the case of `O=C(c1ccc(-c2cncc(-c3cc(NC4CC4)nc(-c4ccccn4)c3)c2)cc1)N1CCNCC1` [Example 2.30, [4-(6′-Cyclopropylamino-[2,2′;4′,3″]terpyridin-5″-yl)-phenyl]-piperazin-1-yl-methanone], the concentration for half-maximal inhibition (IC50) (usually the concentration that inhibits the measured activity by half) is 8 nM. In other words, the single-digit nanomolar range.

`CC(C)N1CCN(Cc2ccc(-c3cncc(-c4cc(NC5CC5)nc(-c5ccccn5)c4)c3)cc2)CC1` [Example 2.31, Cyclopropyl-{5″-[4-(4-isopropyl-piperazin-1-ylmethyl)-phenyl]-[2,2′;4′,3″]terpyridin-6′-yl}-amine] came in with an IC50 of 4 nM.

`CN(C)[C@@H]1CCN(Cc2ccc(-c3cncc(-c4cc(NC5CC5)nc(-c5ccccn5)c4)c3)cc2)C1` [Example 2.62, Cyclopropyl-{5″-[4-((R)-3-dimethylamino-pyrrolidin-1-ylmethyl)-phenyl]-[2,2′;4′,3″]terpyridin-6′-yl}-amine] yielded an IC50 of 235 nM.

The compound `Cc1cccc(-c2cc(-c3cncc(-c4ccc(CO)cc4)c3)cc(NC3CC3)n2)n1` [Example 2.69, [4-(6′-Cyclopropylamino-6-methyl-[2,2′;4′,3″]terpyridin-5″-yl)-phenyl]-methanol] yielded an IC50 of 28 nM.

In turn, `c1ccc(-c2cc(-c3cncc(-c4ccc(CN5CCNCC5)cc4)c3)cc(NC3CC3)n2)nc1` [Example 2.70, Cyclopropyl-[5″-(4-piperazin-1-ylmethyl-phenyl)-[2,2′;4′,3″]terpyridin-6′-yl]-amine] had an IC50 of 89 nM.

With `Cc1cccc(-c2cc(-c3cncc(-c4ccc(CN5CCN(C(C)C)CC5)cc4)c3)cc(N)n2)n1` [Example 2.71, 5″-[4-(4-Isopropyl-piperazin-1-ylmethyl)-phenyl]-6-methyl-[2,2′;4′,3″]terpyridin-6′-ylamine], the IC50 was determined as 74 nM.

The compound `CC(C)N1CCN(Cc2ccc(-c3cncc(-c4cc(N)nc(-c5ccccn5)c4)c3)cc2)CC1` [Example 2.72, 5″-[4-(4-Isopropyl-piperazin-1-ylmethyl)-phenyl]-[2,2′;4′,3″]terpyridin-6′-ylamine] gave an IC50 of 42 nM.

Regarding `CC(C)N1CCN(Cc2ccc(-c3cncc(-c4cc(-c5ccccn5)nc(C(C)(C)O)c4)c3)cc2)CC1` [Example 2.80, 2-(5″-[4-(4-Isopropyl-piperazin-1-ylmethyl)-phenyl]-[2,2′;4′,3″]terpyridin-6′-yl)-propan-2-ol], the IC50 stood at 39 nM.

Take `CC(C)(O)c1cc(-c2cncc(-c3ccc(CN4CCNCC4)cc3)c2)cc(-c2ccccn2)n1` [Example 2.81, 2-[5″-(4-piperazin-1-ylmethyl-phenyl)-[2,2′;4′,3″]terpyridin-6′-yl]-propan-2-ol]: half-maximal inhibition (IC50) required 28 nM.

`CC(C)(O)c1cc(-c2cncc(-c3ccc(CN4CCN(C(C)(C)C)CC4)cc3)c2)cc(-c2ccccn2)n1` [Example 2.82, 2-{5″-[4-(4-tert-Butyl-piperazin-1-ylmethyl)-phenyl]-[2,2′;4′,3″]terpyridin-6′-yl}-propan-2-ol]: the half-inhibitory concentration (IC50) was 36 nM. This IC50 and that of the compound before are within 1.5-fold of each other.

Consider `[2H]C([2H])([2H])N1CCN(C(=O)c2ccc(-c3cncc(-c4cc(-c5ccccn5)nc(C(C)(C)O)c4)c3)cc2)CC1` [Example 2.83, {4-[6′-(1-Hydroxy-1-methyl-ethyl)-[2,2′;4′,3″]terpyridin-5″-yl]-phenyl}-(4-methyl-d3-piperazin-1-yl)-methanone], for which the IC50 stood at 59 nM.

On to `CC(C)(O)c1cc(-c2cncc(-c3cnn(C4CCOCC4)c3)c2)cc(-c2ccccn2)n1` [Example 2.84, 2-{5″-[1-(Tetrahydro-pyran-4-yl)-1H-pyrazol-4-yl]-[2,2′;4′,3″]terpyridin-6′-yl}-propan-2-ol], for which the IC50 amounted to 20 nM.

On to `[2H]C([2H])([2H])N1CCN(Cc2ccc(-c3cncc(-c4cc(-c5ccccn5)nc(C(C)(C)O)c4)c3)cc2)CC1` [Example 2.85, 2-{5″-[4-(4-Methyl-d3-piperazin-1-ylmethyl)-phenyl]-[2,2′;4′,3″]terpyridin-6′-yl}-propan-2-ol], for which half-maximal inhibition (IC50) was put at 74 nM.

For the compound `Cn1cc(-c2cncc(-c3cc(-c4ccccn4)nc(C(C)(C)O)c3)c2)cn1` [Example 2.86, 2-[5″-(1-Methyl-1H-pyrazol-4-yl)-[2,2′;4′,3″]terpyridin-6′-yl]-propan-2-ol], the IC50 worked out at 92 nM. The IC50 values of the last two compounds are within 1.5-fold of each other.

Take `CC1CN(C(=O)c2ccc(-c3cncc(-c4cc(-c5ccccn5)nc(C(C)(C)O)c4)c3)cc2)CC(C)N1C` (stereo not shown) [Example 2.87, {4-[6′-(1-Hydroxy-1-methyl-ethyl)-[2,2′;4′,3″]terpyridin-5″-yl]-phenyl}-(3,4,5-trimethyl-piperazin-1-yl)-methanone]: the IC50 came out at 139 nM.

Compound `CC(C)(O)c1cc(-c2cncc(-c3cnn(C4CCNCC4)c3)c2)cc(-c2ccccn2)n1` [Example 2.88, 2-[5″-(1-Piperidin-4-yl-1H-pyrazol-4-yl)-[2,2′;4′,3″]terpyridin-6′-yl]-propan-2-ol] returned an IC50 of 22 nM. This IC50 is about 6.3-fold lower than that of the compound before.

`CC(C)N1CCC(n2cc(-c3cncc(-c4cc(-c5ccccn5)nc(C(C)(C)O)c4)c3)cn2)CC1` [Example 2.89]: half-maximal inhibition (IC50) required 17 nM.

For the compound `Cc1cc(CN2CCN(C(C)C)CC2)ccc1-c1cncc(-c2cc(-c3ccccn3)nc(C(C)(C)O)c2)c1` [Example 2.90, 2-{5″-[4-(4-Isopropyl-piperazin-1-ylmethyl)-2-methyl-phenyl]-[2,2′;4′,3″]terpyridin-6′-yl}-propan-2-ol], the midpoint of inhibition, the IC50, lay at 71 nM. This IC50 lies about 4.2-fold higher than the previous one.

Consider `C[C@@H]1CN(Cc2ccc(-c3cncc(-c4cc(-c5ccccn5)nc(C(C)(C)O)c4)c3)cc2)CCN1` [Example 2.91, 2-{5″-[4-((R)-3-Methyl-piperazin-1-ylmethyl)-phenyl]-[2,2′;4′,3″]terpyridin-6′-yl}-propan-2-ol], for which the IC50 worked out at 32 nM.

Compound `CC1(C)CN(Cc2ccc(-c3cncc(-c4cc(-c5ccccn5)nc(C(C)(C)O)c4)c3)cc2)CCN1` [Example 2.92, 2{-5″-[4-(3,3-Dimethyl-piperazin-1-ylmethyl)-phenyl]-[2,2′;4′,3″]terpyridin-6′-yl}-propan-2-ol] yielded an IC50 of 35 nM.

Take `CC(C)N1CCN(Cc2ccc(-c3cncc(-c4cc(-c5ccccn5)nc(C(C)(C)C)c4)c3)cc2)CC1` [Example 2.95, 6′-tert-Butyl-5″-[4-(4-isopropyl-piperazin-1-ylmethyl)-phenyl]-[2,2′;4′,3″]terpyridine]: it took 209 nM to reach half-maximal inhibition (IC50).

On to `[2H]C([2H])([2H])Nc1cc(-c2cncc(-c3ccc(CN4CCN(C(C)C)CC4)cc3)c2)cc(-c2ccccn2)n1` [Example 2.100, {5″-[4-(4-Isopropyl-piperazin-1-ylmethyl)-phenyl]-[2,2′;4′,3″]terpyridin-6′-yl}-methyl-d3-amine], for which the IC50 stood at 11 nM.

`[2H]C([2H])([2H])Nc1cc(-c2cncc(-c3ccc(CN4CCNCC4)cc3)c2)cc(-c2ccccn2)n1` [Example 2.102, Methyl-d3-[5″-(4-piperazin-1-ylmethyl-phenyl)-[2,2′;4′,3″]terpyridin-6′-yl]-amine] had an IC50 of 14 nM.

The compound `[2H]C([2H])([2H])Nc1cc(-c2cncc(-c3cnn(C)c3)c2)cc(-c2ccccn2)n1` [Example 2.104, Methyl-d3-[5″-(1-methyl-1H-pyrazol-4-yl)-[2,2′;4′,3″]terpyridin-6′-yl]-amine] displayed an IC50 of 13 nM.

`CNc1cc(-c2cncc(-c3ccc(C(=O)N4CCN(C)CC4)cc3)c2)cc(-c2ccccn2)n1` [Example 2.106, [4-(6′-Methyl-d3-amino-[2,2′;4′,3″]terpyridin-5″-yl)-phenyl]-(4-methyl-d3-piperazin-1-yl)-methanone] registered an IC50 of 9 nM.
